Data on two compounds can be found in PMC6730478, “Discovery of N-(2-Aminophenyl)-4-(bis(2-chloroethyl)amino)Benzamide as a Potent Histone Deacetylase Inhibitor” (Frontiers in Pharmacology, 2019).

One test deals with A2780 cells. Nature of the test: MTT antiproliferative assay. The test is classed as cell-based. The note with it: for IC50: Homo sapiens, A2780, 48 h, read-out: Antiproliferative activity IC50, A2780. The procedure: . The stock solutions of tested compounds were diluted with culture medium. The cells were seeded in 96-well plates at a density 5 × 10^3 cells per well and incubated until confluency of 90–95%, and then each well was treated with 100 µl of medium containing the desired concentrations of tested compounds and incubated for 48 h. MTT working solution of 20 µl (5 mg/ml) was then added to each well and incubated for another 4 h. At the end of incubation, the medium were carefully removed, and 200 µl of DMSO was added. The optical density at 490 and 630 nm was then measured with a microplate reader (Model 680, Bio-Rad). […] The IC50 values were calculated with Origin 7.5 software, and standard deviations of the IC50 values were obtained from at least three independent experiments.
(Formazan colour is commonly taken as a measure of viable cells.)

The test system of test [1] is HepG2 cells. Put plainly: Cell cycle assay (PI staining, flow cytometry). The test is classed as cell-based. The note with it: 6 h; for HepG2 cells at the G2/M phase: control 21.24%; for HepG2 cell population at the G0/G1 phase: control 55.60%. The procedure: Cells were then washed twice with cold phosphate-buffered saline (PBS) and fixed in 70% precooled ethanol at 4°C for 12 h. After the fixation, cells were washed again with PBS and stained with PI/RNase A for 30 min at room temperature and eventually subjected to flow cytometry (CytoFLEX, Beckman Coulter) for cell cycle distribution determination.
(Flow cytometry measures light scatter and fluorescence of single cells or particles in a stream.)

The test system of test [2] is HepG2 cells. Nature of the test: Annexin V-FITC/PI apoptosis detection (flow cytometry). The note with it: 24 h, control 3.52%. The test is classed as cell-based. The procedure:
Cells were then washed with PBS, collected, resuspended with binding buffer from the annexin V-FITC kit (Thermo Fisher Co., USA) and then added with 5 µl of annexin V-FITC and mixed gently. After 10 min of incubation, 1 µl of PI was added to each sample and mixed gently. After incubation at room temperature for another 20 min in the dark, cells were subjected to flow cytometry (CytoFLEX, Beckman Coulter).

For the next test, the target named is T1, HDAC1 (Homo sapiens, UniProt Q13547).
T1 construct: purchased BPS Bioscience
T1 sequence (Q13547 whole entry): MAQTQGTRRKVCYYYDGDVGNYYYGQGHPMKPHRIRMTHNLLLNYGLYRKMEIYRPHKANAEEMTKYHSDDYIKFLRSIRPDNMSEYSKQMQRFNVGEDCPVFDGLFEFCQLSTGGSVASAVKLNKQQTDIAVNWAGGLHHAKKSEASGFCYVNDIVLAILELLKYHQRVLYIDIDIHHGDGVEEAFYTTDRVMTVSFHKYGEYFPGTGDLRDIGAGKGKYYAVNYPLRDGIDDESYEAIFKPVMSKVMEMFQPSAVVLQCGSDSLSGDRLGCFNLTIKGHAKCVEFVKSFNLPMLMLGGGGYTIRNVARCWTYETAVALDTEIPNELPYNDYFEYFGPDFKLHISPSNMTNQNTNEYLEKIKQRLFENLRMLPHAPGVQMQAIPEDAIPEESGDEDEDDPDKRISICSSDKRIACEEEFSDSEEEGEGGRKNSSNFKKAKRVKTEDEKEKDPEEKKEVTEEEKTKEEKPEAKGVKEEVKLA
Nature of the test: In vitro HDAC inhibitory assay (fluorogenic substrate). The test is classed as biochemical. The procedure:
(§1) All of the HDAC enzymes were bought from BPS Bioscience. In vitro HDAC inhibition assays were conducted as previously described. Briefly, 20 μl of recombinant HDAC enzyme solution (HDAC1−9) was mixed with various concentrations of tested compound (20 μl). The mixture was incubated at 30°C for 1 h (for the time-dependent assay, the mixture was incubated for 15, 30, 60, and 90 min, respectively), and then 10 μl of fluorogenic substrate (Boc-Lys (acetyl)-AMC (3 mM) for HDAC1, 2, 3, and 6, Boc-Lys (trifluoroacetyl)-AMC (3 mM) for HDAC 4, 7, 8, and 9) was added. After incubation at 30°C for 2 h, the catalytic reaction was stopped by addition of 10 μl of developer containing trypsin and trichostatin A (TSA). After 30 min, fluorescence intensity was measured using a microplate reader at excitation and emission wavelengths of 360 and 460 nm, respectively. The inhibition ratios were calculated from the fluorescence intensity readings of tested wells relative to those of control wells, and the IC50 curves and values were determined by GraphPad Prism 6.0 software.

In the next test the target is T2, HDAC7 (Homo sapiens, UniProt Q8WUI4).
T2 construct: purchased BPS Bioscience
T2 sequence (Q8WUI4 whole entry): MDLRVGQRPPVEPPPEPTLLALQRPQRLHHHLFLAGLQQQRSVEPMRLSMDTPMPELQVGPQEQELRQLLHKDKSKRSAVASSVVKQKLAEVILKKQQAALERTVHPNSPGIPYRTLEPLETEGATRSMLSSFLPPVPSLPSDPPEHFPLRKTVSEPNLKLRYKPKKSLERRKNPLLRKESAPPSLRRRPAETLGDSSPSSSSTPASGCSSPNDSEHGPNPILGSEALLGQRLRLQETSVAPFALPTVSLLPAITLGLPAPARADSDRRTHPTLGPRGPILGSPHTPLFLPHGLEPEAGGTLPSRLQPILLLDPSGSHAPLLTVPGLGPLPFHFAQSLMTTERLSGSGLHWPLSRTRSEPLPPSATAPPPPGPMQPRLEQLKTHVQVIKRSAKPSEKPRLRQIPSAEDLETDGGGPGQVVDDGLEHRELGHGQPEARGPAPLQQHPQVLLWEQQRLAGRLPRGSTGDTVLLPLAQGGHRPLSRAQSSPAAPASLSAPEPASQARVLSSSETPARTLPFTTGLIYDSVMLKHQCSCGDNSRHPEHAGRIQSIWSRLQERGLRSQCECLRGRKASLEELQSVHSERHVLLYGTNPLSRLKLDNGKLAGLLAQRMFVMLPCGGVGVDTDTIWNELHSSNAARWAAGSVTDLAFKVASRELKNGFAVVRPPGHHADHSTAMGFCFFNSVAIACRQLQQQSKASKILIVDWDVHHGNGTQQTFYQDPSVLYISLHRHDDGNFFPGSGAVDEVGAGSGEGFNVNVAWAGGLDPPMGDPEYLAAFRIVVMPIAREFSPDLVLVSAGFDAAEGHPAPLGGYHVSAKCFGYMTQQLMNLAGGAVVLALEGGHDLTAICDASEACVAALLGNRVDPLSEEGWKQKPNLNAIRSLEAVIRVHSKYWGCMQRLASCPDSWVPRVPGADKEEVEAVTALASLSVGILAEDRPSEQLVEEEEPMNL
Described as above. The note with it: n ≥ 2, SD <10% of the mean; read-out: Enzyme inhibitory activity IC50, HDAC7. The test is classed as biochemical. The protocol: as §1

A further test has as its target T3, HDAC2 (Homo sapiens, UniProt Q92769).
T3 construct: purchased BPS Bioscience
Nature of the test: biochemical. The note with it: n ≥ 2, SD <10% of the mean; read-out: Enzyme inhibitory activity IC50, HDAC2. The protocol: as §1

In a further test the target is T4, HDAC3 (Homo sapiens, UniProt O15379).
T4 construct: purchased BPS Bioscience
T4 sequence (O15379 whole entry): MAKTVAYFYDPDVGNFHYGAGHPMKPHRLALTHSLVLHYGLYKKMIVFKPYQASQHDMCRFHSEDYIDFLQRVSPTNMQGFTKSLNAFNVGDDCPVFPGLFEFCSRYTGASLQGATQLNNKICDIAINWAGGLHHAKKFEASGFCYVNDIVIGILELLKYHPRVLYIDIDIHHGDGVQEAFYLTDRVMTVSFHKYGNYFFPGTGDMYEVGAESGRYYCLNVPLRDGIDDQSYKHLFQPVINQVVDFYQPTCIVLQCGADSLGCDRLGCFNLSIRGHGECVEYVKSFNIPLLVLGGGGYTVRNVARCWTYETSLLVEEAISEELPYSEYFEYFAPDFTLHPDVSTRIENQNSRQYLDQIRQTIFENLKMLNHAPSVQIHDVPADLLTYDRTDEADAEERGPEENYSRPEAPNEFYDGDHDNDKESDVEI
T4 sequence (Q9Y618 395-489 partner limits assumed): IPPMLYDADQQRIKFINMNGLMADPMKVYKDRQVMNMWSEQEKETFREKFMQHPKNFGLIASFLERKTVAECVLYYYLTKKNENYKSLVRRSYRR
Put plainly: biochemical. The note with it: n ≥ 2, SD <10% of the mean; read-out: Enzyme inhibitory activity IC50, HDAC3. The procedure: as §1

The target in another test is T5, HDAC4 (Homo sapiens, UniProt P56524).
T5 construct: purchased BPS Bioscience
T5 sequence (P56524 whole entry): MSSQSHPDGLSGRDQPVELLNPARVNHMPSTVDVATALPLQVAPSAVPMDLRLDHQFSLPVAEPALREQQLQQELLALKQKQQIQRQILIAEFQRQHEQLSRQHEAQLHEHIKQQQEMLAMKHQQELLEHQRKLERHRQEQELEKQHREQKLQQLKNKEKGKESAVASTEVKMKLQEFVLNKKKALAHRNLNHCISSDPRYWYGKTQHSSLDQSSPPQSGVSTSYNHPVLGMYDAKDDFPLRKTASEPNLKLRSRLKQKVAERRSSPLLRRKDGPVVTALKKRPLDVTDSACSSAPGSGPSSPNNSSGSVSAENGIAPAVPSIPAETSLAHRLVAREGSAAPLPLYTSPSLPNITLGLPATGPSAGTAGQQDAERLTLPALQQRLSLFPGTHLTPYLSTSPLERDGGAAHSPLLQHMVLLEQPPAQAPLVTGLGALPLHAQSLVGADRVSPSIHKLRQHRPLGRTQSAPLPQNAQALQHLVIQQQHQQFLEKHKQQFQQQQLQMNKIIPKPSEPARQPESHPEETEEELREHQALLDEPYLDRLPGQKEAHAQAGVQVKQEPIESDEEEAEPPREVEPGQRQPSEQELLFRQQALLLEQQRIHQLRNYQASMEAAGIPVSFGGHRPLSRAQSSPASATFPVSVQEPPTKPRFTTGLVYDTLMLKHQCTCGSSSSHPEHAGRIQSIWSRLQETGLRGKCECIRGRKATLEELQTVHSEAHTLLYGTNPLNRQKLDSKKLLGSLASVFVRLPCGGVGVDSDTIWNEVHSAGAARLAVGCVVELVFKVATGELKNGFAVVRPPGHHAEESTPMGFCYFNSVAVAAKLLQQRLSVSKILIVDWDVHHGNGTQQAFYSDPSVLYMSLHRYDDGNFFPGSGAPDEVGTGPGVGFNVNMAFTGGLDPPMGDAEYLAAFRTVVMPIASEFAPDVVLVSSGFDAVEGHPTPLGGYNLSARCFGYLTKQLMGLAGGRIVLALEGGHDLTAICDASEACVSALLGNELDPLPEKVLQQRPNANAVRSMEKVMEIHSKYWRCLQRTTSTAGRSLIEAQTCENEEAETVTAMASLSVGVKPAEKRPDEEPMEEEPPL
Nature of the test: biochemical. The protocol:
as §1

The next test addresses T6, HDAC6 (Homo sapiens, UniProt Q9UBN7).
T6 construct: purchased BPS Bioscience
Nature of the test: biochemical. The procedure:
as §1

A further test has as its target T7, HDAC8 (Homo sapiens, UniProt Q9BY41).
T7 construct: purchased BPS Bioscience
Put plainly: biochemical. The protocol: as §1

The next test has as its target T8, HDAC9 (Homo sapiens, UniProt Q9UKV0).
T8 construct: purchased BPS Bioscience
Nature of the test: biochemical. The procedure:
as §1

A further test deals with A549 cells. Nature of the test: MTT antiproliferative assay. The note with it: Homo sapiens, A549, 48 h, read-out: Antiproliferative activity IC50, A549. The test is classed as cell-based. The procedure: (§2) The stock solutions of tested compounds were diluted with culture medium. […] MTT working solution of 20 µl (5 mg/ml) was then added to each well and incubated for another 4 h. At the end of incubation, the medium were carefully removed, and 200 µl of DMSO was added. The optical density at 490 and 630 nm was then measured with a microplate reader (Model 680, Bio-Rad). […] The IC50 values were calculated with Origin 7.5 software, and standard deviations of the IC50 values were obtained from at least three independent experiments.

The test system of a further test is Calu-3 cells. Put plainly: MTT antiproliferative assay. The test is classed as cell-based. The note with it: Homo sapiens, Calu-3, 48 h, read-out: Antiproliferative activity IC50, Calu-3. The protocol: as §2
Another test relates to Colo205 cells. Put plainly: MTT antiproliferative assay. The note with it: Homo sapiens, COLO 205, 48 h, read-out: Antiproliferative activity IC50, Colo205. The test is classed as cell-based. The procedure:
as §2

Test [3] relates to HepG2 cells. Nature of the test: MTT antiproliferative assay. The test is classed as cell-based. The protocol:
as §2

The next test deals with LoVo cells. Put plainly: MTT antiproliferative assay. The test is classed as cell-based. The note with it: Homo sapiens, 48 h, read-out: Antiproliferative activity IC50, LoVo. The protocol: as §2
For another test, the system named is MCF-7 cells. Nature of the test: MTT antiproliferative assay. The test is classed as cell-based. The note with it: Homo sapiens, MCF7, 48 h, read-out: Antiproliferative activity IC50, MCF-7. The protocol:
as §2

In another test the test system is MDA-MB-231 cells. Nature of the test: MTT antiproliferative assay. The test is classed as cell-based. The note with it: Homo sapiens, MDA-MB-231, 48 h, read-out: Antiproliferative activity IC50, MDA-MB-231. The procedure:
as §2

In another test the test system is MDA-MB-468 cells. Put plainly: MTT antiproliferative assay. The test is classed as cell-based. The note with it: Homo sapiens, MDA-MB-468, 48 h, read-out: Antiproliferative activity IC50, MDA-MB-468. The procedure:
as §2

Another test deals with MKN45 cells. Put plainly: MTT antiproliferative assay. The test is classed as cell-based. The note with it: Homo sapiens, MKN-45, 48 h, read-out: Antiproliferative activity IC50, MKN45. The protocol: as §2
For another test, the system named is PNAC-1 cells. Put plainly: MTT antiproliferative assay. The test is classed as cell-based. The note with it: 48 h, read-out: Antiproliferative activity IC50, PNAC-1. The protocol:
as §2

For another test, the system named is SKOV3 cells. Nature of the test: MTT antiproliferative assay. The test is classed as cell-based. The note with it: Homo sapiens, SK-OV-3, 48 h, read-out: Antiproliferative activity IC50, SKOV3. The protocol:
as §2

A further test deals with U937 cells. Nature of the test: MTT antiproliferative assay. The test is classed as cell-based. The note with it: Homo sapiens, U-937, 48 h, read-out: Antiproliferative activity IC50, U937. The procedure: as §2
A further test deals with cleaved caspase-3. Put plainly: Western blot in HepG2 cells. The test is classed as cell-based. The note with it: 1 µM, 24 h, compared with SAHA. The procedure:
(§3) Protein sample concentrations were determined with Brandford assay. Thirty micrograms of each sample was subjected to sodium dodecyl sulfate–polyacrylamide gel electrophoresis (SDS-PAGE). After electrophoresis, proteins were transferred to polyvinylidene difluoride (PVDF) membrane (Millipore) and blocked with 5% fat-free dry milk in 1 × Tris-buffered saline (TBST) for 2 h at room temperature. Membranes were then probed with corresponding antibodies at 4°C overnight. Cleaved caspase-3 (#9661), caspase-3 (#9662), cleaved caspase-9 (#9505), caspase-9 (#9508), phospho-cdc2 (#4539), and cdc2 (#77055) antibodies were obtained from Cell Signaling Technology (Danvers, MA). Expression of human β-actin was detected with anti-β-actin antibody (Proteintech, Rosemont, IL) as a loading control. The membranes were then incubated with horseradish peroxidase (HRP)-conjugated secondary antibody (Santa Cruz, CA) and visualized with enhanced chemiluminescence (ECL)-detecting reagents (ComWin Biotech Co., Beijing, China).

The next test relates to cleaved caspase-9. Nature of the test: Western blot in HepG2 cells. The test is classed as cell-based. The note with it: 1 µM, 24 h, compared with SAHA. The protocol:
as §3
A general note: In western blotting, separated proteins are transferred to a membrane and probed.

For a further test, the system named is phosphorylated cdc2. Nature of the test: Western blot in HepG2 cells. The test is classed as cell-based. The note with it: 1 µM, 24 h, compared with SAHA. The protocol: as §3
Where [4] appears, read: more potent than SAHA, ratio of IC50 values.

Molecules are shown by their SMILES.

T7 sequence (Q9BY41 whole entry): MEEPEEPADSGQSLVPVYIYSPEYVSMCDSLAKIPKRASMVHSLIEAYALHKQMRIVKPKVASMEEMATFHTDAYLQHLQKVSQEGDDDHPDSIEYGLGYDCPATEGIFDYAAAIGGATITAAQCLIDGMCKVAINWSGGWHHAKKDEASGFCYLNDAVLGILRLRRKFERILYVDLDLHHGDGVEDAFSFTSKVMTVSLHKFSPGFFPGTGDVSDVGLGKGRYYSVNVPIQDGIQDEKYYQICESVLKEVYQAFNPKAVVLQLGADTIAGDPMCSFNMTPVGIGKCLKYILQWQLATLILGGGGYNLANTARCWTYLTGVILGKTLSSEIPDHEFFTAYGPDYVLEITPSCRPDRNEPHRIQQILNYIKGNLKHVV
T3 sequence (Q92769 whole entry): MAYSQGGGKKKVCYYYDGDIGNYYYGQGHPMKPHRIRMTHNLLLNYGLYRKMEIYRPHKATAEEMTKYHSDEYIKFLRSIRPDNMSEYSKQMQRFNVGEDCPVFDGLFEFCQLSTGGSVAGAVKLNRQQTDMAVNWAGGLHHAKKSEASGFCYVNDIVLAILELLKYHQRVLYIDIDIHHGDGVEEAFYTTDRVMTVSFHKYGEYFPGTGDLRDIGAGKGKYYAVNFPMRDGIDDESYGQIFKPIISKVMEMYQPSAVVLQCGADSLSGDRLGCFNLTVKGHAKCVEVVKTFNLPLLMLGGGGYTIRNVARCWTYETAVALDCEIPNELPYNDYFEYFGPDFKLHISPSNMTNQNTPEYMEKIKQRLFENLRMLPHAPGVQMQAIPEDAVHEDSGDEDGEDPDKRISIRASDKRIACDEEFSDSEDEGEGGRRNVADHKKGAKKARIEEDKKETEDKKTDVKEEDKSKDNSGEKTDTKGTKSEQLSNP
T8 sequence (Q9UKV0 whole entry): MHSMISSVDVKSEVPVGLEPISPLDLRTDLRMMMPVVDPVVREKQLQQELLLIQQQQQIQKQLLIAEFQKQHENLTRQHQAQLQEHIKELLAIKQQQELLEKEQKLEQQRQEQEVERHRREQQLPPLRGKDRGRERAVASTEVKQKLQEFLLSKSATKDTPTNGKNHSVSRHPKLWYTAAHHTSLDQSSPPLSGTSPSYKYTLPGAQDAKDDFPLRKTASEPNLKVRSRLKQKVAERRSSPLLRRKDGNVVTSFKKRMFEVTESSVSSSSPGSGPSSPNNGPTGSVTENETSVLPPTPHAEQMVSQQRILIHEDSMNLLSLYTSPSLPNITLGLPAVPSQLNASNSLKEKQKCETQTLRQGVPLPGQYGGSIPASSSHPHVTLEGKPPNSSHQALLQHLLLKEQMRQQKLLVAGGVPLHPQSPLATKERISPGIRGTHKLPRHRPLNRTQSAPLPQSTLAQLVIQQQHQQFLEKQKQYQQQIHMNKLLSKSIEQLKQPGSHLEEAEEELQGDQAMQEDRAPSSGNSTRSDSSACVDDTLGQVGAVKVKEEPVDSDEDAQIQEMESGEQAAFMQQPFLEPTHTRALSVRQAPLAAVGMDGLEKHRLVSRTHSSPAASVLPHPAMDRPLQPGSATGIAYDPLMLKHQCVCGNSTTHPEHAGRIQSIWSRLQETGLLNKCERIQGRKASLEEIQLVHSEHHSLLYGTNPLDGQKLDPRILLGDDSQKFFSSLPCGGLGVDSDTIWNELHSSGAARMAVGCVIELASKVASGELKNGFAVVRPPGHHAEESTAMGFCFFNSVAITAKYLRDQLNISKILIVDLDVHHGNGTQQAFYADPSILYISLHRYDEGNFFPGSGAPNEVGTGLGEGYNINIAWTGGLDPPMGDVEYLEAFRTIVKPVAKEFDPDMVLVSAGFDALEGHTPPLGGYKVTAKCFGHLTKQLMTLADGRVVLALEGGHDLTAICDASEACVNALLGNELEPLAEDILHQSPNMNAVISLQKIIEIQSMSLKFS

A word on the IC50: it is the concentration that inhibits the measured activity by half. Consider `O=C(CCCCCCC(=O)Nc1ccccc1)NO` [SAHA, Suberoylanilide hydroxamic acid, reference compound], for which the IC50 in the test with A2780 cells was 27.3 µM. For the same compound, the “Effect on the population of HepG2 cells at the G0/G1 phase (in words)” value in the test on HepG2 cells [1] (1, 3, and 9 µM) is on record as “no significant effects”. The “Percentage of apoptotic HepG2 cells” value in the test with HepG2 cells [2] (1 µM) amounted to 4.52%; in the test with HepG2 cells [2] (3 µM) it was 6.24%; with HepG2 cells [2] (9 µM), 20.32%.

As to `Nc1ccccc1NC(=O)c1ccc(N(CCCl)CCCl)cc1` [NA, N-(2-Aminophenyl)-4-(bis(2-chloroethyl)amino)benzamide], the IC50 at HDAC1 (n ≥ 2, SD <10% of the mean, read-out: Enzyme inhibitory activity IC50, HDAC1) is 0.0952 µM; on HDAC7 it was > 5 µM; on HDAC2, 0.261 µM; on HDAC3 it was 0.256 µM; on HDAC4, > 5 µM; against HDAC6, > 5 µM. The IC50 against HDAC8 was > 5 µM; at HDAC9, > 5 µM; with A2780 cells, 2.66 µM; in the test with A549 cells, 14.7 µM; with Calu-3 cells it was 5.81 µM; with Colo205 cells, 33.8 µM. Also, the IC50 in the test with HepG2 cells [3] (Homo sapiens, HepG2, 48 h, read-out: Antiproliferative activity IC50, HepG2) came to 1.73 µM; with LoVo cells, 10.4 µM; in the test with MCF-7 cells it was 18.7 µM; with MDA-MB-231 cells, 7.64 µM; with MDA-MB-468 cells, 6.33 µM; with MKN45 cells it was 14.3 µM. Further, the results for the half-maximal inhibitory concentration (IC50) with PNAC-1 cells, with SKOV3 cells and in the test with U937 cells were 8.52 µM, 3.91 µM and 1.21 µM, respectively. Also, the “HDAC1 selectivity versus HDAC2” value at HDAC1 (ratio of IC50 values, HDAC1 versus HDAC2) worked out at 2.74 fold. Besides, the “HDAC1 selectivity versus HDAC3” value at HDAC1 (ratio of IC50 values, HDAC1 versus HDAC3) is 2.69 fold. Further, the “Potency relative to SAHA, A2780 cell growth inhibition” value with A2780 cells (setting [4]) turned out to be 10.3 fold. In addition, the “Potency relative to SAHA, HepG2 cell growth inhibition” value in the test with HepG2 cells [3] (setting [4]) was found to be 11.3 fold. Also, the results for the “HepG2 cells at the G2/M phase” value in the test with HepG2 cells [1] (1 µM), in the test with HepG2 cells [1] (3 µM) and in the test on HepG2 cells [1] (9 µM) were 25.98%, 35.05% and 38.89%, respectively. Further, the “HepG2 cell population at the G0/G1 phase” value with HepG2 cells [1] (1 µM) is on record as 48.64%; in the test on HepG2 cells [1] (3 µM), 41.61%; with HepG2 cells [1] (9 µM), 37.19%. For the same compound, the “Percentage of apoptotic HepG2 cells” value in the test on HepG2 cells [2] (1 µM) amounted to 9.15%; in the test on HepG2 cells [2] (3 µM), 18.07%; with HepG2 cells [2] (9 µM) it was 37.39%. Besides, the “Protein expression level of cleaved caspase-3” value in the test on cleaved caspase-3 was “remarkedly increased”. For the same compound, the “Protein expression level of cleaved caspase-9” value with cleaved caspase-9 is listed as “remarkedly increased”. Further, the “Phosphorylation of cdc2” value with phosphorylated cdc2 is “up-regulated”.
